Several values for one entry are separate records, joined by “and”; a condition that tells them apart may be missing. Equal values may be shown once.
Tested on: NCI-H211 complex spheroid viability
Assay: Anticancer human tumor NCI-H211 cell line growth inhibition [LSD1];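 note: luminescent viability read after seven days of drug exposure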;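 for viability, T/C: 100% = DMSO vehicle control viability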
Conditions: for viability, T/C: stronger effect = lower value
Method in brief: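 Multicellular complex spheroids of tumor cells with human endothelial cells (HUVEC) and mesenchymal stem cells; the LSD1 inhibitor iadademstat was combined with standard-of-care or investigational agents. Top concentration at or near clinical Cmax, half-log dilutions; final DMSO ≤0.25%.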

[1] = curve of first compound, second compound 0.1 µM
[2] = curve of first compound, second compound 0.316 µM
[3] = curve of first compound, second compound 1 µM
[4] = curve of first compound, second compound 3.16 µM
[5] = curve of first compound, second compound 10 µM
[6] = second compound 0.1 µM, first compound 0.00316 µM
[7] = second compound 0.1 µM, first compound 0.01 µM
[8] = second compound 0.1 µM, first compound 0.0316 µM
[9] = second compound 0.1 µM, first compound 0.1 µM
[10] = second compound 0.316 µM, first compound 0.00316 µM
[11] = second compound 0.316 µM, first compound 0.01 µM
[12] = second compound 0.316 µM, first compound 0.0316 µM
[13] = second compound 0.316 µM, first compound 0.1 µM
[14] = second compound 1 µM, first compound 0.00316 µM
[15] = second compound 1 µM, first compound 0.01 µM
[16] = second compound 1 µM, first compound 0.0316 µM
[17] = second compound 1 µM, first compound 0.1 µM
[18] = second compound 3.16 µM, first compound 0.00316 µM
[19] = second compound 3.16 µM, first compound 0.01 µM
[20] = second compound 3.16 µM, first compound 0.0316 µM
[21] = second compound 3.16 µM, first compound 0.1 µM
[22] = second compound 10 µM, first compound 0.00316 µM
[23] = second compound 10 µM, first compound 0.01 µM
[24] = second compound 10 µM, first compound 0.0316 µM
[25] = second compound 10 µM, first compound 0.1 µM
[26] = second compound 0.1 µM, first compound 0.316 µM
[27] = second compound 0.1 µM, first compound 1 µM
[28] = second compound 0.316 µM, first compound 0.316 µM
[29] = second compound 0.316 µM, first compound 1 µM
[30] = second compound 1 µM, first compound 0.316 µM
[31] = second compound 1 µM, first compound 1 µM
[32] = second compound 3.16 µM, first compound 0.316 µM
[33] = second compound 3.16 µM, first compound 1 µM
[34] = second compound 10 µM, first compound 0.316 µM
[35] = second compound 10 µM, first compound 1 µM

SMILES | IC50 [1] [nM] | IC50 [2] [nM] | IC50 [3] [nM] | IC50 [4] [nM] | IC50 [5] [nM] | viability, T/C [6] [%] | viability, T/C [7] [%] | viability, T/C [8] [%] | viability, T/C [9] [%] | viability, T/C [10] [%] | viability, T/C [11] [%] | viability, T/C [12] [%] | viability, T/C [13] [%] | viability, T/C [14] [%] | viability, T/C [16] [%] | viability, T/C [17] [%] | viability, T/C [20] [%] | viability, T/C [21] [%] | viability, T/C [24] [%] | viability, T/C [25] [%] | further results
CC(C)CC(NC(=O)C(Cc1ccccc1)NC(=O)c1cnccn1)B(O)O (centres undefined) + NC1CCC(NC2CC2c2ccccc2)CC1 | 2 | 2.05 | 1.79 | 1.68 | < 0.316 | 29.3 | 2.16 | 3.13 | 6.8 | 35.8 | 1.76 | 0.22 | 0.13 | 32.7 | 0.23 | 2.46 | 0.97 | 0.14 | 0.17 | 0.14 | viability, T/C (second compound 0.1 µM, first compound 0.000316 µM): 73.8%; viability, T/C (second compound 0.1 µM, first compound 0.001 µM): 88.6%; viability, T/C (second compound 0.316 µM, first compound 0.000316 µM): 70.9%; viability, T/C (second compound 0.316 µM, first compound 0.001 µM): 76%; viability, T/C (second compound 1 µM, first compound 0.000316 µM): 62.5%; viability, T/C (second compound 1 µM, first compound 0.001 µM): 72.7%; viability, T/C [15]: 1.57%; viability, T/C (second compound 3.16 µM, first compound 0.000316 µM): 64.3%; viability, T/C (second compound 3.16 µM, first compound 0.001 µM): 72.3%; viability, T/C [18]: 27.4%; viability, T/C [19]: 1.43%; viability, T/C (second compound 10 µM, first compound 0.000316 µM): 44.9%; viability, T/C (second compound 10 µM, first compound 0.001 µM): 45.3%; viability, T/C [22]: 14.2%; viability, T/C [23]: 0.55%
O=C(C=Cn1cnc(-c2cc(C(F)(F)F)cc(C(F)(F)F)c2)n1)NNc1cnccn1 + NC1CCC(NC2CC2c2ccccc2)CC1 | < 3.16 | < 3.16 | < 3.16 | < 3.16 | < 3.16 | 33.4 | 20.6 | 11.6 | 6.71 | 40.1 | 23.5 | 11.2 | 6.77 | 41.4 | 9.68 | 5.65 | 11 | 5.74 | 7.59 | 3.68 | viability, T/C [26]: 2.42%; viability, T/C [27]: 1.48%; viability, T/C [28]: 2.16%; viability, T/C [29]: 8.93%; viability, T/C [15]: 21.7%; viability, T/C [30]: 2.43%; viability, T/C [31]: 1.5%; viability, T/C [18]: 32.9%; viability, T/C [19]: 22.1%; viability, T/C [32]: 2.43%; viability, T/C [33]: 1.51%; viability, T/C [22]: 24.4%; viability, T/C [23]: 15.7%; viability, T/C [34]: 1.66%; viability, T/C [35]: 1.3%
NC1CCC(NC2CC2c2ccccc2)CC1 (centres undefined) |  |  |  |  |  |  |  |  |  |  |  |  |  |  |  |  |  |  |  |  | viability, T/C (compound 0.316 µM): 74.9% [middle of 4 runs]; viability, T/C (compound 10 µM): 36.1% [middle of 23 runs]
CC(C)c1c(-c2ccccc2)nc2c(C#N)c[nH]n2c1=O + NC1CC1c1ccc(-c2cccc(O)c2)cc1 | 6120 | 6660 | 2930 | 6420 | 3800 |  |  | 86.7 | 66.5 |  |  | 73.7 | 75.5 |  | 74.3 | 64.2 | 83.6 | 57.1 | 52.1 | 62.4 | viability, T/C [26]: 70.5%; viability, T/C [27]: 66%; viability, T/C (second compound 0.1 µM, first compound 3.16 µM): 54.9%; viability, T/C (second compound 0.1 µM, first compound 10 µM): 45.3%; viability, T/C [28]: 69.9%; viability, T/C [29]: 61.9%; viability, T/C (second compound 0.316 µM, first compound 3.16 µM): 63.1%; viability, T/C (second compound 0.316 µM, first compound 10 µM): 43.9%; viability, T/C [30]: 63.4%; viability, T/C [31]: 69.8%; viability, T/C (second compound 1 µM, first compound 3.16 µM): 48.7%; viability, T/C (second compound 1 µM, first compound 10 µM): 37.5%; viability, T/C [32]: 74.8%; viability, T/C [33]: 63.5%; viability, T/C (second compound 3.16 µM, first compound 3.16 µM): 59.6%; viability, T/C (second compound 3.16 µM, first compound 10 µM): 44.3%; viability, T/C [34]: 64.5%; viability, T/C [35]: 58.8%; viability, T/C (second compound 10 µM, first compound 3.16 µM): 47.2%; viability, T/C (second compound 10 µM, first compound 10 µM): 41.7%
Nc1ccn(C2OC(CO)C(O)C2(F)F)c(=O)n1 (centres undefined) |  |  |  |  |  |  |  |  |  |  |  |  |  |  |  |  |  |  |  |  | viability, T/C (compound 0.000949 µM): 2.49% and 5.54%; viability, T/C (compound 0.003 µM): 2.72% and 4.15%; viability, T/C (compound 0.00949 µM): 7.87% and 4.04%; viability, T/C (compound 0.03 µM): 2.08% and 4.19%; viability, T/C (compound 0.0949 µM): 2.85% and 4.27%; viability, T/C (compound 0.3 µM): 2.42% and 5%; IC50 (curve of compound): < 0.949 nM
O=C(C=Cn1cnc(-c2cc(C(F)(F)F)cc(C(F)(F)F)c2)n1)NNc1cnccn1 + NC1CC1c1ccc(-c2cccc(O)c2)cc1 | < 3.16 | < 3.16 | < 3.16 | < 3.16 | < 3.16 | 45.6 | 35.5 | 16.3 | 6.54 | 29.8 | 29 | 14.4 | 6.98 | 38.4 | 12.8 | 6.89 | 16.6 | 7.35 | 17.8 | 9.12 | viability, T/C [26]: 2.54%; viability, T/C [27]: 2.3%; viability, T/C [28]: 2.61%; viability, T/C [29]: 2.22%; viability, T/C [15]: 32.6%; viability, T/C [30]: 3.1%; viability, T/C [31]: 2.61%; viability, T/C [18]: 47.7%; viability, T/C [19]: 29.5%; viability, T/C [32]: 3.74%; viability, T/C [33]: 2.99%; viability, T/C [22]: 40.6%; viability, T/C [23]: 28.6%; viability, T/C [34]: 3.24%; viability, T/C [35]: 3.79%
